Reference: ChEMBL document CHEMBL3297661, “1-Substituted-5-[(3,5-dinitrobenzyl)sulfanyl]-1H-tetrazoles and their isosteric analogs: A new class of selective antitubercular agents active against drug-susceptible and multidrug-resistant mycobacteria” (Eur J Med Chem, 2014)
Values after ≈ are worked out from the molar mass of the structure shown.

Each compound was assayed on Mycobacterium tuberculosis (assay: Antimycobacterial activity against Mycobacterium tuberculosis CNCTC My 331/88 after 14 days by micromethod). Conditions: CNCTC My 331/88, 336 h.
Type: functional
With `CCN(CC)c1ccc(-n2nnnc2SCc2cc([N+](=O)[O-])cc([N+](=O)[O-])c2)cc1` the MIC was 2 µM (≈ 0.859 µg/mL).
Compound `CCCCCCCCCCCCCCCCSCc1cc([N+](=O)[O-])cc([N+](=O)[O-])c1` has an MIC of 1000 µM (≈ 439 µg/mL).
Work on `COc1cc(-n2nnnc2OCc2cc([N+](=O)[O-])cc([N+](=O)[O-])c2)cc(OC)c1OC` yielded an MIC of 16 µM (≈ 6.92 µg/mL).
`O=[N+]([O-])c1cc(CS(=O)(=O)c2nnnn2-c2ccccc2)cc([N+](=O)[O-])c1` was tested, and the MIC was 8 µM (≈ 3.12 µg/mL).
`Nc1cc(N)cc(CSc2nnnn2-c2ccccc2)c1` showed an MIC of 250 µM (≈ 74.6 µg/mL).
Compound `c1ccc(C[Se]c2nnnn2-c2ccccc2)cc1` has an MIC of 125 µM (≈ 39.4 µg/mL).

The compounds below were run on Mycobacterium tuberculosis (assay: Antimycobacterial activity against Mycobacterium tuberculosis CNCTC My 331/88 after 21 days by micromethod). Conditions: CNCTC My 331/88, 504 h.
Type: functional
Compound `CCN(CC)c1ccc(-n2nnnc2SCc2cc([N+](=O)[O-])cc([N+](=O)[O-])c2)cc1` has an MIC of 2 µM (≈ 0.859 µg/mL).
In the case of `CCCCCCCCCCCCCCCCSCc1cc([N+](=O)[O-])cc([N+](=O)[O-])c1`, the MIC is reported as 1000 µM (≈ 439 µg/mL).
In the case of `COc1cc(-n2nnnc2OCc2cc([N+](=O)[O-])cc([N+](=O)[O-])c2)cc(OC)c1OC`, the MIC is reported as 16 µM (≈ 6.92 µg/mL).
`O=[N+]([O-])c1cc(CS(=O)(=O)c2nnnn2-c2ccccc2)cc([N+](=O)[O-])c1` showed an MIC of 8 µM (≈ 3.12 µg/mL).
In the case of `Nc1cc(N)cc(CSc2nnnn2-c2ccccc2)c1`, the MIC is reported as 500 µM (≈ 149 µg/mL).
Compound `c1ccc(C[Se]c2nnnn2-c2ccccc2)cc1` has an MIC of 125 µM (≈ 39.4 µg/mL).

Each compound was assayed on Mycobacterium avium (assay: Antimycobacterial activity against Mycobacterium avium CNCTC My 330/88 after 14 days by micromethod). Conditions: CNCTC My 330/88, 336 h.
Type: functional
`CCN(CC)c1ccc(-n2nnnc2SCc2cc([N+](=O)[O-])cc([N+](=O)[O-])c2)cc1` was tested, and the MIC was 62 µM (≈ 26.6 µg/mL).
`CCCCCCCCCCCCCCCCSCc1cc([N+](=O)[O-])cc([N+](=O)[O-])c1` gave an MIC of 1000 µM (≈ 439 µg/mL).
With `COc1cc(-n2nnnc2OCc2cc([N+](=O)[O-])cc([N+](=O)[O-])c2)cc(OC)c1OC` the MIC was 32 µM (≈ 13.8 µg/mL).
`O=[N+]([O-])c1cc(CS(=O)(=O)c2nnnn2-c2ccccc2)cc([N+](=O)[O-])c1` showed an MIC of 62 µM (≈ 24.2 µg/mL).
`Nc1cc(N)cc(CSc2nnnn2-c2ccccc2)c1` was tested, and the MIC was 1000 µM (≈ 298 µg/mL).
`c1ccc(C[Se]c2nnnn2-c2ccccc2)cc1` gave an MIC of 62 µM (≈ 19.5 µg/mL).

These compounds were tested on Mycobacterium avium (assay: Antimycobacterial activity against Mycobacterium avium CNCTC My 330/88 after 21 days by micromethod). Conditions: CNCTC My 330/88, 504 h.
Type: functional
With `CCN(CC)c1ccc(-n2nnnc2SCc2cc([N+](=O)[O-])cc([N+](=O)[O-])c2)cc1` the MIC was 62 µM (≈ 26.6 µg/mL).
Compound `CCCCCCCCCCCCCCCCSCc1cc([N+](=O)[O-])cc([N+](=O)[O-])c1` has an MIC of 1000 µM (≈ 439 µg/mL).
`COc1cc(-n2nnnc2OCc2cc([N+](=O)[O-])cc([N+](=O)[O-])c2)cc(OC)c1OC` gave an MIC of 32 µM (≈ 13.8 µg/mL).
`O=[N+]([O-])c1cc(CS(=O)(=O)c2nnnn2-c2ccccc2)cc([N+](=O)[O-])c1` was tested, and the MIC was 125 µM (≈ 48.8 µg/mL).
For `Nc1cc(N)cc(CSc2nnnn2-c2ccccc2)c1`, the MIC was 1000 µM (≈ 298 µg/mL).
Compound `c1ccc(C[Se]c2nnnn2-c2ccccc2)cc1` has an MIC of 125 µM (≈ 39.4 µg/mL).

These compounds were tested on Mycobacterium kansasii (assay: Antimycobacterial activity against Mycobacterium kansasii CNCTC My 235/80 after 7 days by micromethod). Conditions: CNCTC My 235/80, 168 h.
Type: functional
`CCN(CC)c1ccc(-n2nnnc2SCc2cc([N+](=O)[O-])cc([N+](=O)[O-])c2)cc1` showed an MIC of 4 µM (≈ 1.72 µg/mL).
In the case of `CCCCCCCCCCCCCCCCSCc1cc([N+](=O)[O-])cc([N+](=O)[O-])c1`, the MIC is reported as 500 µM (≈ 219 µg/mL).
For `COc1cc(-n2nnnc2OCc2cc([N+](=O)[O-])cc([N+](=O)[O-])c2)cc(OC)c1OC`, the MIC was 8 µM (≈ 3.46 µg/mL).
In the case of `O=[N+]([O-])c1cc(CS(=O)(=O)c2nnnn2-c2ccccc2)cc([N+](=O)[O-])c1`, the MIC is reported as 32 µM (≈ 12.5 µg/mL).
`Nc1cc(N)cc(CSc2nnnn2-c2ccccc2)c1` gave an MIC of 250 µM (≈ 74.6 µg/mL).
`c1ccc(C[Se]c2nnnn2-c2ccccc2)cc1` was tested, and the MIC was 2 µM (≈ 0.63 µg/mL).

What follows are compounds tested on Mycobacterium kansasii (assay: Antimycobacterial activity against Mycobacterium kansasii CNCTC My 235/80 after 14 days by micromethod). Conditions: CNCTC My 235/80, 336 h.
Type: functional
Compound `CCN(CC)c1ccc(-n2nnnc2SCc2cc([N+](=O)[O-])cc([N+](=O)[O-])c2)cc1` has an MIC of 8 µM (≈ 3.44 µg/mL).
`CCCCCCCCCCCCCCCCSCc1cc([N+](=O)[O-])cc([N+](=O)[O-])c1` gave an MIC of 500 µM (≈ 219 µg/mL).
`COc1cc(-n2nnnc2OCc2cc([N+](=O)[O-])cc([N+](=O)[O-])c2)cc(OC)c1OC` was tested, and the MIC was 16 µM (≈ 6.92 µg/mL).
Compound `O=[N+]([O-])c1cc(CS(=O)(=O)c2nnnn2-c2ccccc2)cc([N+](=O)[O-])c1` has an MIC of 62 µM (≈ 24.2 µg/mL).
Work on `Nc1cc(N)cc(CSc2nnnn2-c2ccccc2)c1` yielded an MIC of 1000 µM (≈ 298 µg/mL).
Compound `c1ccc(C[Se]c2nnnn2-c2ccccc2)cc1` has an MIC of 8 µM (≈ 2.52 µg/mL).

The compounds below were run on Mycobacterium kansasii (assay: Antimycobacterial activity against Mycobacterium kansasii CNCTC My 235/80 after 21 days by micromethod). Conditions: CNCTC My 235/80, 504 h.
Type: functional
For `CCN(CC)c1ccc(-n2nnnc2SCc2cc([N+](=O)[O-])cc([N+](=O)[O-])c2)cc1`, the MIC was 32 µM (≈ 13.7 µg/mL).
`CCCCCCCCCCCCCCCCSCc1cc([N+](=O)[O-])cc([N+](=O)[O-])c1` gave an MIC of 500 µM (≈ 219 µg/mL).
With `COc1cc(-n2nnnc2OCc2cc([N+](=O)[O-])cc([N+](=O)[O-])c2)cc(OC)c1OC` the MIC was 32 µM (≈ 13.8 µg/mL).
Work on `O=[N+]([O-])c1cc(CS(=O)(=O)c2nnnn2-c2ccccc2)cc([N+](=O)[O-])c1` yielded an MIC of 62 µM (≈ 24.2 µg/mL).
For `Nc1cc(N)cc(CSc2nnnn2-c2ccccc2)c1`, the MIC was 1000 µM (≈ 298 µg/mL).
`c1ccc(C[Se]c2nnnn2-c2ccccc2)cc1` showed an MIC of 16 µM (≈ 5.04 µg/mL).

What follows are compounds tested on Mycobacterium kansasii (assay: Antimycobacterial activity against Mycobacterium kansasii 6509/96 after 7 days by micromethod). Conditions: 6509/96, 168 h.
Type: functional
For `CCN(CC)c1ccc(-n2nnnc2SCc2cc([N+](=O)[O-])cc([N+](=O)[O-])c2)cc1`, the MIC was 8 µM (≈ 3.44 µg/mL).
`CCCCCCCCCCCCCCCCSCc1cc([N+](=O)[O-])cc([N+](=O)[O-])c1` gave an MIC of 500 µM (≈ 219 µg/mL).
In the case of `COc1cc(-n2nnnc2OCc2cc([N+](=O)[O-])cc([N+](=O)[O-])c2)cc(OC)c1OC`, the MIC is reported as 16 µM (≈ 6.92 µg/mL).
For `O=[N+]([O-])c1cc(CS(=O)(=O)c2nnnn2-c2ccccc2)cc([N+](=O)[O-])c1`, the MIC was 32 µM (≈ 12.5 µg/mL).
For `Nc1cc(N)cc(CSc2nnnn2-c2ccccc2)c1`, the MIC was 250 µM (≈ 74.6 µg/mL).
With `c1ccc(C[Se]c2nnnn2-c2ccccc2)cc1` the MIC was 32 µM (≈ 10.1 µg/mL).

The compounds below were run on Mycobacterium kansasii (assay: Antimycobacterial activity against Mycobacterium kansasii 6509/96 after 14 days by micromethod). Conditions: 6509/96, 336 h.
Type: functional
For `CCN(CC)c1ccc(-n2nnnc2SCc2cc([N+](=O)[O-])cc([N+](=O)[O-])c2)cc1`, the MIC was 16 µM (≈ 6.87 µg/mL).
Work on `CCCCCCCCCCCCCCCCSCc1cc([N+](=O)[O-])cc([N+](=O)[O-])c1` yielded an MIC of 500 µM (≈ 219 µg/mL).
`COc1cc(-n2nnnc2OCc2cc([N+](=O)[O-])cc([N+](=O)[O-])c2)cc(OC)c1OC` gave an MIC of 32 µM (≈ 13.8 µg/mL).
Work on `O=[N+]([O-])c1cc(CS(=O)(=O)c2nnnn2-c2ccccc2)cc([N+](=O)[O-])c1` yielded an MIC of 62 µM (≈ 24.2 µg/mL).
With `Nc1cc(N)cc(CSc2nnnn2-c2ccccc2)c1` the MIC was 1000 µM (≈ 298 µg/mL).
`c1ccc(C[Se]c2nnnn2-c2ccccc2)cc1` showed an MIC of 125 µM (≈ 39.4 µg/mL).

These compounds were tested on Mycobacterium kansasii (assay: Antimycobacterial activity against Mycobacterium kansasii 6509/96 after 21 days by micromethod). Conditions: 6509/96, 504 h.
Type: functional
In the case of `CCN(CC)c1ccc(-n2nnnc2SCc2cc([N+](=O)[O-])cc([N+](=O)[O-])c2)cc1`, the MIC is reported as 62 µM (≈ 26.6 µg/mL).
For `CCCCCCCCCCCCCCCCSCc1cc([N+](=O)[O-])cc([N+](=O)[O-])c1`, the MIC was 500 µM (≈ 219 µg/mL).
With `COc1cc(-n2nnnc2OCc2cc([N+](=O)[O-])cc([N+](=O)[O-])c2)cc(OC)c1OC` the MIC was 62 µM (≈ 26.8 µg/mL).
`O=[N+]([O-])c1cc(CS(=O)(=O)c2nnnn2-c2ccccc2)cc([N+](=O)[O-])c1` was tested, and the MIC was 62 µM (≈ 24.2 µg/mL).
`Nc1cc(N)cc(CSc2nnnn2-c2ccccc2)c1` showed an MIC of 1000 µM (≈ 298 µg/mL).
`c1ccc(C[Se]c2nnnn2-c2ccccc2)cc1` gave an MIC of 250 µM (≈ 78.8 µg/mL).
